Where two headings read alike, the source gives them in different places.
Target: androgen receptor (hAR) (Homo sapiens (Human), UniProt P10275)
Test: Test of transcriptional activity (hAR / ARE-Luc dual-luciferase assay in CHO cells)
Type: cell-based
Details: CHO cells with hAR and ARE-Luc, 24 hours, 10 nM DHT = 100%
Experimental: In order to examine the transcriptional activity of the agonists of the present invention, the following in-vitro experiment was performed. CHO (Chinese hamster ovary) cell line (ATCC, #CCL-61) was seeded in a 96-well plate at a density of 1.5×10^4 cells/well, and cultured for 24 hours. Then, a plasmid hAR and plasmid ARE-Luc-mixed medium was added thereto. The transfected cell line was treated with 0.1˜10,000 nM of SARM derivatives, and then allowed to react for 24 hours.

[1] = read-out: EC50 [nM] (mean ± SE)

Chain of androgen receptor (hAR) (P10275 whole entry): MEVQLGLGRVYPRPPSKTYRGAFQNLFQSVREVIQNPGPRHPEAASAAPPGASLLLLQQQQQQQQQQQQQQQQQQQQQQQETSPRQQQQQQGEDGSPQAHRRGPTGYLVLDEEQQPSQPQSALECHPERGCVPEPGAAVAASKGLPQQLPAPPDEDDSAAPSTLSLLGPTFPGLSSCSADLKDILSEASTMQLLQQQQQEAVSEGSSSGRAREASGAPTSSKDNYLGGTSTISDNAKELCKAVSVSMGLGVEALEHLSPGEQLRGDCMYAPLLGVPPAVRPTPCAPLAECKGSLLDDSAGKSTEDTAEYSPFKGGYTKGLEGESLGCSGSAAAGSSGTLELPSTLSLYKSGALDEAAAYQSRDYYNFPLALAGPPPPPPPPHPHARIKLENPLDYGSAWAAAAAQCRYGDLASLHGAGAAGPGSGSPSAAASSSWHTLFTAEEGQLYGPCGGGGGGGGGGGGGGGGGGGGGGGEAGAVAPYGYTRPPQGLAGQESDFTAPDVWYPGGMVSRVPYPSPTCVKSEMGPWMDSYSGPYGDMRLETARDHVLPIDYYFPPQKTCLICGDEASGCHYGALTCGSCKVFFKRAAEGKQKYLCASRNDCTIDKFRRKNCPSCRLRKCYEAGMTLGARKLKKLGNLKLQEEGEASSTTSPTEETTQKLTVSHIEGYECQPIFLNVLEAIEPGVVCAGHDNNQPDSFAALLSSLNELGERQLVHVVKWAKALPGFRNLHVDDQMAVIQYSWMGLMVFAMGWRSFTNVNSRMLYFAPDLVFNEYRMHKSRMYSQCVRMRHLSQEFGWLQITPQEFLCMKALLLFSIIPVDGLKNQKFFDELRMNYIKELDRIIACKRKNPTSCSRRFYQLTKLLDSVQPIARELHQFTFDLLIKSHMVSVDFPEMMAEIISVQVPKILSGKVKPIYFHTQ

Molecule | EC50 [1] [nM] | EC50 (EC50 [nM] (mean ± SE))
(2R,5S)-3-(3-chloro-4-cyanophenyl)-N-(4-cyanophenyl)-2-(trifluoromethyl)oxazolidine-5-carboxamide [Example 117] | 2 | –
N#Cc1ccc(N2C[C@@H](C(=O)Nc3ccc([N+](=O)[O-])cc3)O[C@@H]2C(F)(F)F)cc1C(F)(F)F [Example 155, (2R,5S)-3-(4-cyano-3-(trifluoromethyl)phenyl)-N-(4-nitrophenyl)-2-(trifluoromethyl)oxazolidine-5-carboxamide] | – | 823
(2R,5S)-3-(3-chloro-4-nitrophenyl)-N-(pyridin-4-yl)-2-(trifluoromethyl)oxazolidine-5-carboxamide [Example 126] | 1.21 | –
(2R,5S)-3-(3-chloro-4-cyanophenyl)-N-(4-cyano-2-fluorophenyl)-2-(trifluoromethyl)oxazolidine-5-carboxamide [Example 119] | 227 | –
COC(=O)Nc1ccc(NC(=O)[C@@H]2CN(c3ccc(C#N)c(C(F)(F)F)c3)[C@@H](C(F)(F)F)O2)c(Cl)c1 [Example 154, methyl(3-chloro-4-((2R,5S)-3-(4-cyano-3-(trifluoromethyl)phenyl)-2-(trifluoromethyl)oxazolidine-5-carboxamido)phenyl)carbamate] | – | 27.8
N#Cc1ccc(N2C[C@@H](COc3ccccc3)O[C@@H]2C(F)(F)F)cc1C(F)(F)F [Example 58, 4-((2R,5S)-5-(phenoxymethyl)-2-(trifluoromethyl)oxazolidin-3-yl)-2-(trifluoromethyl)benzonitrile] | – | 107
(2R,5S)-3-(4-cyano-3-(trifluoromethyl)phenyl)-N-(3,4-dicyanophenyl)-2-(trifluoromethyl)oxazolidine-5-carboxamide [Example 132] | 3.44 | –
(2R,5S)-N-(4-cyano-2-fluorophenyl)-3-(3-methyl-4-nitrophenyl)-2-(trifluoromethyl)oxazolidine-5-carboxamide [Example 113] | 80.5 | –
N#Cc1ccc(N2C[C@@H](C(=O)Nc3ccc(N)cc3F)O[C@@H]2C(F)(F)F)cc1C(F)(F)F [Example 105, (2R,5S)-N-(4-amino-2-fluorophenyl)-3-(4-cyano-3-(trifluoromethyl)phenyl)-2-(trifluoromethyl)oxazolidine-5-carboxamide] | – | 49.9
Cc1c(N2C[C@@H](COc3ccc(/C=N/O)cc3)O[C@@H]2C(F)(F)F)ccc(C#N)c1Cl [Example 78, 2-chloro-4-((2R,5S)-5-((4-((E)-(hydroxyimino)methyl)phenoxy)methyl)-2-(trifluoromethyl)oxazolidin-3-yl)-3-methylbenzonitrile] | – | 4.91
N#Cc1ccc(N2C[C@@H](COc3ccc(N4CCCC4=O)cc3)O[C@@H]2C(F)(F)F)cc1C(F)(F)F [Example 17, 4-((2R,5S)-5-((4-(2-oxopyrrolidin-1-yl)phenoxy)methyl)-2-(trifluoromethyl)oxazolidin-3-yl)-2-(trifluoromethyl)benzonitrile] | – | 24
N#Cc1ccc(OC[C@@H]2CN(c3ccc(C#N)c(C(F)(F)F)c3)[C@@H]([C@H](O)C(F)(F)F)O2)cc1 [Example 49, 4-((2R,5S)-5-((4-cyanophenoxy)methyl)-2-((S)-2,2,2-trifluoro-1-hydroxyethyl)oxazolidin-3-yl)-2-(trifluoromethyl)benzonitrile] | – | 1700
CO/N=C/c1ccc(OC[C@@H]2CN(c3ccc(C#N)c(C(F)(F)F)c3)[C@@H](C(F)(F)F)O2)cc1 [Example 85, 4-((2R,5S)-5-((4-((E)-(methoxyimino)methyl)phenoxy)methyl)-2-(trifluoromethyl)oxazolidin-3-yl)-2-(trifluoromethyl)benzonitrile] | – | 9.84
CC(=O)N1CCN(C(=O)[C@@H]2CN(c3ccc(C#N)c(C(F)(F)F)c3)[C@@H](C(F)(F)F)O2)CC1 [Example 172, 4-((2R,5S)-5-(4-acetylpiperazine-1-carbonyl)-2-(trifluoromethyl)oxazolidin-3-yl)-2-(trifluoromethyl)benzonitrile] | – | 699
N#Cc1ccc(N2C[C@@H](COc3ccc(NC(=O)CO)cc3)O[C@@H]2C(F)(F)F)cc1C(F)(F)F [Example 94, N-(4-(((2R,5S)-3-(4-cyano-3-(trifluoromethyl)phenyl)-2-(trifluoromethyl)oxazolidin-5-yl)methoxy)phenyl)-2-hydroxyacetamide] | – | 4.12
(2R,5S)-N-(4-cyanophenyl)-3-(3-methyl-4-nitrophenyl)-2-(trifluoromethyl)oxazolidine-5-carboxamide [Example 111] | 4.46 | –
N#Cc1ccc(N2C[C@@H](COc3ccncc3)O[C@@H]2C(F)(F)F)cc1Cl [Example 72, 2-chloro-4-((2R,5S)-5-((pyridin-4-yloxy)methyl)-2-(trifluoromethyl)oxazolidin-3-yl)benzonitrile] | – | 1.03
CC(C)OC(=O)Nc1ccc(OC[C@@H]2CN(c3ccc(C#N)c(C(F)(F)F)c3)[C@@H](C(F)(F)F)O2)cc1 [Example 42, isopropyl (4-(((2R,5S)-3-(4-cyano-3-(trifluoromethyl)phenyl)-2-(trifluoromethyl)oxazolidin-5-yl)methoxy)phenyl)carbamate] | – | 514

Molecule | EC50 [1] [nM] | EC50 (EC50 [nM] (mean ± SE))
Cc1cc(N2C[C@@H](COc3ccc(C#N)nc3)O[C@@H]2C(F)(F)F)ccc1[N+](=O)[O-] [Example 55, 5-(((2R,5S)-3-(3-methyl-4-nitrophenyl)-2-(trifluoromethyl)oxazolidin-5-yl)methoxy)picolinonitrile] | 4.49 | –
(2R,5S)-N-(4-cyano-2,6-difluorophenyl)-3-(4-cyano-3-(trifluoromethyl)phenyl)-2-(trifluoromethyl)oxazolidine-5-carboxamide [Example 129] | 4.68 | –
N#Cc1ccc(N2C[C@@H](C(=O)Nc3ccc([N+](=O)[O-])cc3F)O[C@@H]2C(F)(F)F)cc1C(F)(F)F [Example 104] | – | 24.9
COC(=O)N1CCN(C(=O)[C@@H]2CN(c3ccc([N+](=O)[O-])c(C)c3)[C@@H](C(F)(F)F)O2)CC1 [Example 179, methyl 4-((2R,5S)-3-(3-methyl-4-nitrophenyl)-2-(trifluoromethyl)oxazolidine-5-carbonyl)piperazine-1-carboxylate] | 42 | –
N#Cc1ccc(N2C[C@@H](COc3ccc(/C=N/O)cc3)O[C@@H]2C(F)(F)F)cc1Cl [Example 74, 2-chloro-4-((2R,5S)-5-((4-((E)-(hydroxyimino)methyl)phenoxy)methyl)-2-(trifluoromethyl)oxazolidin-3-yl)benzonitrile] | – | 0.658
(2R,5S)-3-(3-chloro-4-nitrophenyl)-N-(4-cyanophenyl)-2-(trifluoromethyl)oxazolidine-5-carboxamide [Example 122] | 67.4 | –
N#Cc1ccc(OC[C@@H]2CN(c3ccc(C#N)c(Cl)c3)[C@@H](C(F)(F)F)O2)cc1 [Example 71, 2-chloro-4-((2R,5S)-5-((4-cyanophenoxy)methyl)-2-(trifluoromethyl)oxazolidin-3-yl)benzonitrile] | – | 1.57
N#Cc1ccc(OC[C@@H]2CN(c3ccc([N+](=O)[O-])c(C(F)(F)F)c3)[C@@H](C(F)(F)F)O2)cn1 [Example 65, 5-(((2R,5S)-3-(4-nitro-3-(trifluoromethyl)phenyl)-2-(trifluoromethyl)oxazolidin-5-yl)methoxy)picolinonitrile] | 59.5 | –
(2R,5S)-3-(3-chloro-4-cyanophenyl)-N-(pyridin-4-yl)-2-(trifluoromethyl)oxazolidine-5-carboxamide [Example 121] | 616 | –
(2R,5S)-N-(2-chloropyridin-4-yl)-3-(3-methyl-4-nitrophenyl)-2-(trifluoromethyl)oxazolidine-5-carboxamide [Example 137] | 1.77 | –
CC(C)(C)OC(=O)NCc1ccc(OC[C@@H]2CN(c3ccc(C#N)c(C(F)(F)F)c3)[C@@H](C(F)(F)F)O2)cc1 [Example 88] | – | 926
N#Cc1cccc(NC(=O)[C@@H]2CN(c3ccc(C#N)c(C(F)(F)F)c3)[C@@H](C(F)(F)F)O2)c1 [Example 141, (2R,5S)-3-(4-cyano-3-(trifluoromethyl)phenyl)-N-(3-cyanophenyl)-2-(trifluoromethyl)oxazolidine-5-carboxamide] | – | 44.2
N#Cc1ccc(N2C[C@@H](COc3ccc(NC(N)=O)cc3)O[C@@H]2C(F)(F)F)cc1C(F)(F)F [Example 15, 1-(4-(((2R,5S)-3-(4-cyano-3-(trifluoromethyl)phenyl)-2-(trifluoromethyl)oxazolidin-5-yl)methoxy)phenyl)urea] | – | 15.7
CN(C)C(=O)Nc1ccc(OC[C@@H]2CN(c3ccc(C#N)c(C(F)(F)F)c3)[C@@H](C(F)(F)F)O2)cc1 [Example 40, 3-(4-(((2R,5S)-3-(4-cyano-3-(trifluoromethyl)phenyl)-2-(trifluoromethyl)oxazolidin-5-yl)methoxy)phenyl)-1,1-dimethylurea] | – | 438
N#Cc1ccc(N2C[C@@H](COc3ccc(CC(=O)O)cc3)O[C@@H]2C(F)(F)F)cc1C(F)(F)F [Example 52, 2-(4-(((2R,5S)-3-(4-cyano-3-(trifluoromethyl)phenyl)-2-(trifluoromethyl)oxazolidin-5-yl)methoxy)phenyl)acetic acid] | – | 759
Cc1c(N2C[C@@H](COc3ccc(C#N)cc3)O[C@H]2C(F)(F)F)ccc(C#N)c1Cl [Example 84, 2-chloro-4-((2S,5S)-5-((4-cyanophenoxy)methyl)-2-(trifluoromethyl)oxazolidin-3-yl)-3-methylbenzonitrile] | – | 1140
N#Cc1ccc(N2C[C@@H](C(=O)N3CCN(C#N)CC3)O[C@@H]2C(F)(F)F)cc1C(F)(F)F [Example 174, 4-((2R,5S)-3-(4-cyano-3-(trifluoromethyl)phenyl)-2-(trifluoromethyl)oxazolidine-5-carbonyl)piperazine-1-carbonitrile] | – | 139
